Source: ChEMBL document CHEMBL1131670, “N-hydroxyurea and hydroxamic acid inhibitors of cyclooxygenase and 5-lipoxygenase” (Bioorg Med Chem Lett, 1999)

Key:
[1] = molecular target: T1, Polyunsaturated fatty acid 5-lipoxygenase (Rattus norvegicus) (UniProt P12527); experiment: Inhibitory activity against 5-lipoxygenase (5-LO) using broken rat […] leukemia cells (RBL-1) at 10 uM; type: cell-based
T1 sequence (whole entry): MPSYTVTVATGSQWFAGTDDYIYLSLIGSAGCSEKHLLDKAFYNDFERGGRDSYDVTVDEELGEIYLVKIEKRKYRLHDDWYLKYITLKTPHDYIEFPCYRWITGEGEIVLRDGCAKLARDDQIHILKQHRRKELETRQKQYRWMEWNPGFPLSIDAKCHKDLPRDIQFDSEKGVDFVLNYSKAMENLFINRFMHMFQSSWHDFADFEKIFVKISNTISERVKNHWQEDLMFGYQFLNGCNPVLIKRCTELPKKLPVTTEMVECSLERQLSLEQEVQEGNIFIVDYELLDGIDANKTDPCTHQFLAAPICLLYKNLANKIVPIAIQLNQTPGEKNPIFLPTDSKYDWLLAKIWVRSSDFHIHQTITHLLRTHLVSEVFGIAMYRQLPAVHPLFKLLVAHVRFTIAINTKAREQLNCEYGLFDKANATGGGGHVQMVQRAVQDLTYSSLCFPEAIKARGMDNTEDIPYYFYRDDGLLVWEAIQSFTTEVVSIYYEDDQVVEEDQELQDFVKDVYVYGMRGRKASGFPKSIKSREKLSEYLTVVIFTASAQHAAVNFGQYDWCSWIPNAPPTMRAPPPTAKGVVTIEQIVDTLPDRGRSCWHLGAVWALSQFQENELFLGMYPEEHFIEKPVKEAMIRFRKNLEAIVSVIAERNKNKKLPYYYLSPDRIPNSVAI

[2] = molecular target: T2, Cyclooxygenase (Rattus norvegicus) (UniProt P35355+Q63921); experiment: Inhibitory activity against Cyclooxygenase (COX) using broken rat […] leukemia cells (RBL-1) at 10 uM; type: cell-based
[3] = molecular target: T3, Prostaglandin G/H synthase 1 (Ovis aries) (UniProt P05979); experiment: Inhibitory activity against Cyclooxygenase using sheep seminal vesicle (SSV) enzyme (COX-1) Inhibition at 10 uM; type: tissue-based
T3 sequence (whole entry): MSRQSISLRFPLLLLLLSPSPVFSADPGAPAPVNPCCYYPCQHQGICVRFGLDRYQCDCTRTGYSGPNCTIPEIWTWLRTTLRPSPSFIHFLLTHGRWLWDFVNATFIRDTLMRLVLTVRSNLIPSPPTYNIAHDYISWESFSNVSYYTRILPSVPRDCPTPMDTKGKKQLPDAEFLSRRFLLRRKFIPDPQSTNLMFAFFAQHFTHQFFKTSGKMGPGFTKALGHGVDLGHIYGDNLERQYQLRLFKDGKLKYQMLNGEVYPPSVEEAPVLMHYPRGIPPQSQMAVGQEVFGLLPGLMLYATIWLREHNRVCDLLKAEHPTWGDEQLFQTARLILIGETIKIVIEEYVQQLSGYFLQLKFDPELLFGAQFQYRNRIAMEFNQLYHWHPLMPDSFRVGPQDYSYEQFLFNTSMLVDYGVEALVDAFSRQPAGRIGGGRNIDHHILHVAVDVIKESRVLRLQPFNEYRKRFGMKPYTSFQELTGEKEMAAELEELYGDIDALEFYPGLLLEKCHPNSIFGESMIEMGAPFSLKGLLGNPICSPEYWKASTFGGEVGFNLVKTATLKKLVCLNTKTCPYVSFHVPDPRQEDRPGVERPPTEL

[4] = molecular target: T4, Polyunsaturated fatty acid 5-lipoxygenase (Homo sapiens) (UniProt P09917); experiment: Inhibitory activity against 5-lipoxygenase (5-LO) in after oral administration of 5 mg/kg at 8 hr; type: organism-based; design: dose 5 mg/kg; conditions: Canis lupus familiaris; at 5 mg/kg
T4 sequence (whole entry): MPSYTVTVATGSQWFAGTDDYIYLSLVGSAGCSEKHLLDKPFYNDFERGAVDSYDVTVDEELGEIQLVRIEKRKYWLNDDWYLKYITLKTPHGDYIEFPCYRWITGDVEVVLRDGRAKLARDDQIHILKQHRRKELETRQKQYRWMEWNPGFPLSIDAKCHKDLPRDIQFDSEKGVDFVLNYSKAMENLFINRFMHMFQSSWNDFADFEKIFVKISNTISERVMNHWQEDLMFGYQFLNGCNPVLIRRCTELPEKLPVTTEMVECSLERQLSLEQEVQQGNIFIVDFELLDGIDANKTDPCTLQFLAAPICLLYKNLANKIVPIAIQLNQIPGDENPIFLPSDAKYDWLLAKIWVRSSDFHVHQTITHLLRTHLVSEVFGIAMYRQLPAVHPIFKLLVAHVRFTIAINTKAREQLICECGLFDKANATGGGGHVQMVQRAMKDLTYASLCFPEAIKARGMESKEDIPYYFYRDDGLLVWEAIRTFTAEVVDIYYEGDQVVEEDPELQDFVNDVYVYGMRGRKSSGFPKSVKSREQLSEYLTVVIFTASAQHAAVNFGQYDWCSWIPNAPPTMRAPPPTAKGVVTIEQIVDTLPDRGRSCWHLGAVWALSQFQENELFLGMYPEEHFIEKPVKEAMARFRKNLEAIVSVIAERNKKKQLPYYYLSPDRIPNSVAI

[5] = molecular target: T4, Polyunsaturated fatty acid 5-lipoxygenase (Homo sapiens); experiment: Inhibitory activity against 5-lipoxygenase (5-LO) in after oral administration of 5 mg/kg at 2 hr; type: organism-based; design: dose 5 mg/kg; conditions: Canis lupus familiaris; at 5 mg/kg
[6] = molecular target: T5, Cyclooxygenase (Homo sapiens) (UniProt P35354+P23219); experiment: Inhibitory activity against cyclooxygenase (COX) in after oral administration of 5 mg/kg at 8 hr; type: organism-based; design: dose 5 mg/kg; conditions: Canis lupus familiaris; at 5 mg/kg
[7] = molecular target: T5, Cyclooxygenase (Homo sapiens); experiment: Inhibitory activity against cyclooxygenase (COX) in after oral administration of 5 mg/kg at 24 hr r; type: organism-based; design: dose 5 mg/kg; conditions: Canis lupus familiaris; at 5 mg/kg
[8] = molecular target: T5, Cyclooxygenase (Homo sapiens); experiment: Inhibitory activity against cyclooxygenase (COX) in after oral administration of 5 mg/kg at 4 hr; type: organism-based; design: dose 5 mg/kg; conditions: Canis lupus familiaris; at 5 mg/kg
[9] = molecular target: T5, Cyclooxygenase (Homo sapiens); experiment: Inhibitory activity against cyclooxygenase (COX) in after oral administration of 5 mg/kg at 2 hr to canine; type: organism-based; design: dose 5 mg/kg; conditions: Canis lupus familiaris; target entry is the homologue from another species; at 5 mg/kg
[10] = molecular target: T4, Polyunsaturated fatty acid 5-lipoxygenase (Homo sapiens); experiment: Inhibitory activity against 5-lipoxygenase (5-LO) in after oral administration of 5 mg/kg at 24 hr r; type: organism-based; design: dose 5 mg/kg; conditions: Canis lupus familiaris; at 5 mg/kg
[11] = molecular target: T4, Polyunsaturated fatty acid 5-lipoxygenase (Homo sapiens); experiment: Inhibitory activity against 5-lipoxygenase (5-LO) in after oral administration of 5 mg/kg at 4 hr; type: organism-based; design: dose 5 mg/kg; conditions: Canis lupus familiaris; at 5 mg/kg
Cyclooxygenase [12] = molecular target: T6, Cyclooxygenase (Rattus norvegicus, UniProt P35355+Q63921); experiment: Inhibitory activity against cyclooxygenase (COX) in intact rat […] leukemia cells (RBL-1); type: cell-based
T6 sequence (P35355 whole entry): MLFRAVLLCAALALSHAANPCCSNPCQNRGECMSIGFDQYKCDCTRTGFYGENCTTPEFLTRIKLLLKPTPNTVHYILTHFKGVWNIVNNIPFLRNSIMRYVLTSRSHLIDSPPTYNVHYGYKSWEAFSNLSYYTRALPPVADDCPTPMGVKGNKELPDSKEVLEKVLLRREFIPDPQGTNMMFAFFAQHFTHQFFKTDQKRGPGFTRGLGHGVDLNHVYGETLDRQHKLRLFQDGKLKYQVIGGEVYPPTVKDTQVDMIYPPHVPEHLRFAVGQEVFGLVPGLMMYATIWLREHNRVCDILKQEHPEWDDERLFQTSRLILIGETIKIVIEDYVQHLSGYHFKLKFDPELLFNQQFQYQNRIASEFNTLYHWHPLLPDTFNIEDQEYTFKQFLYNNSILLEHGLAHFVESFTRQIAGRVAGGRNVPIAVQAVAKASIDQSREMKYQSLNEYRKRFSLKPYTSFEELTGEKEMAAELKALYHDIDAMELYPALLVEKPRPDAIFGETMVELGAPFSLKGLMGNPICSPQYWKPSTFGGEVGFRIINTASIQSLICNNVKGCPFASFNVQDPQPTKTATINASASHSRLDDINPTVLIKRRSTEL
T6 sequence (Q63921 whole entry): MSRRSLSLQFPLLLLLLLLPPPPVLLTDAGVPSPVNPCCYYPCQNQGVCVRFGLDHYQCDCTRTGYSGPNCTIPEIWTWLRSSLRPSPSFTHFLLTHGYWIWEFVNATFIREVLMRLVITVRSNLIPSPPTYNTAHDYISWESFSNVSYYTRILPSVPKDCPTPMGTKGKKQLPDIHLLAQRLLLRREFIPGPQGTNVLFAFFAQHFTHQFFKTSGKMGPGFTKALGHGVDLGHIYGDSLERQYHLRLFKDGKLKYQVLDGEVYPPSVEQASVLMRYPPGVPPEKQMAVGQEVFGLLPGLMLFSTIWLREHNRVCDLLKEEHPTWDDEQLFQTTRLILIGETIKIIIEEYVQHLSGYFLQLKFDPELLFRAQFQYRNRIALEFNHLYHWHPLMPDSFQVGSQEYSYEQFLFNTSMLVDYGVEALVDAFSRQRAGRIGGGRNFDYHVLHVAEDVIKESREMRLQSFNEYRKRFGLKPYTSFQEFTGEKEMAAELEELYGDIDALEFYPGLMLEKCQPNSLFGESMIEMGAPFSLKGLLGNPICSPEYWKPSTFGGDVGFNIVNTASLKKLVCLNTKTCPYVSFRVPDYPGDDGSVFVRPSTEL

[13] = molecular target: T3, Prostaglandin G/H synthase 1 (Ovis aries); experiment: Inhibitory activity against Cyclooxygenase using sheep seminal vesicle (SSV) enzyme (COX-1)at 10 uM; type: tissue-based
[14] = molecular target: T2, Cyclooxygenase (Rattus norvegicus); experiment: (§1) Inhibitory activity against Cyclooxygenase (COX) using broken rat […] leukemia cells (RBL-1); type: cell-based; conditions: concentration not given here
[15] = molecular target: T3, Prostaglandin G/H synthase 1 (Ovis aries); experiment: Inhibitory activity against Cyclooxygenase using sheep seminal vesicle (SSV) enzyme (COX-1) at 10 uM; type: tissue-based
[16] = molecular target: T1, Polyunsaturated fatty acid 5-lipoxygenase (Rattus norvegicus); experiment: Inhibitory activity against 5-lipoxygenase (5-LO) using broken rat […] leukemia cells (RBL-1)at 10 uM; type: cell-based
[17] = molecular target: T5, Cyclooxygenase (Homo sapiens); experiment: Inhibitory activity against cyclooxygenase (COX) in after oral administration of 5 mg/kg at 4 hr to canine; type: organism-based; design: dose 5 mg/kg; conditions: Canis lupus familiaris; target entry is the homologue from another species; at 5 mg/kg
[18] = molecular target: T4, Polyunsaturated fatty acid 5-lipoxygenase (Homo sapiens); experiment: Inhibitory activity against 5-lipoxygenase (5-LO) in after oral administration of 5 mg/kg at 4 hr to canine; type: organism-based; design: dose 5 mg/kg; conditions: Canis lupus familiaris; target entry is the homologue from another species; at 5 mg/kg
[19] = molecular target: T4, Polyunsaturated fatty acid 5-lipoxygenase (Homo sapiens); experiment: Inhibitory activity against 5-lipoxygenase (5-LO) in after oral administration of 5 mg/kg at 8 hr to canine; type: organism-based; design: dose 5 mg/kg; conditions: Canis lupus familiaris; target entry is the homologue from another species; at 5 mg/kg
Cyclooxygenase [20] = molecular target: T6, Cyclooxygenase; experiment: as §1; type: cell-based
[21] = molecular target: T5, Cyclooxygenase (Homo sapiens); experiment: Inhibitory activity against cyclooxygenase (COX) in after oral administration of 5 mg/kg at 8 hr to canine; type: organism-based; design: dose 5 mg/kg; conditions: Canis lupus familiaris; target entry is the homologue from another species; at 5 mg/kg
[22] = molecular target: T4, Polyunsaturated fatty acid 5-lipoxygenase (Homo sapiens); experiment: Inhibitory activity against 5-lipoxygenase (5-LO) in after oral administration of 5 mg/kg at 24 hr r to canine; type: organism-based; design: dose 5 mg/kg; conditions: Canis lupus familiaris; target entry is the homologue from another species; at 5 mg/kg
[23] = molecular target: T4, Polyunsaturated fatty acid 5-lipoxygenase (Homo sapiens); experiment: Inhibitory activity against 5-lipoxygenase (5-LO) in after oral administration of 5 mg/kg at 2 hr to canine; type: organism-based; design: dose 5 mg/kg; conditions: Canis lupus familiaris; target entry is the homologue from another species; at 5 mg/kg

## CNC(=O)N(O)C(C)C#Cc1cc(-c2ccc(Cl)cc2)n(-c2ccc(OC)cc2)n1 (stereo not given)
[1]
  inhibition: 79%
[2]
  inhibition: 0%
[3]
  inhibition: 5%

## COc1ccc(-n2nc(C#CC(C)N(O)C(C)=O)cc2-c2ccc(Cl)cc2)cc1 (stereo not given)
[4]
  inhibition: 31%
[5]
  inhibition: 34%
[6]
  inhibition: 62%
[7]
  inhibition: 68%
[8]
  inhibition: 75%
[9]
  inhibition: 92%
[10]
  inhibition: 12%
[11]
  inhibition: 20%

## COc1ccc(-n2nc(C#CC(C)N(O)C(=O)N3CCOCC3)cc2-c2ccc(Cl)cc2)cc1 (stereo not given)
Cyclooxygenase [12]
  IC50: 1600 nM
[13]
  inhibition: 14%

## COC(=O)N(O)C(C)C#Cc1cc(-c2ccc(Cl)cc2)n(-c2ccc(OC)cc2)n1 (stereo not given)
[1]
  inhibition: 77%
[2]
  inhibition: 84%
Cyclooxygenase [12]
  IC50: 290 nM

## COc1ccc(-n2nc(C#CCN(O)C(C)=O)cc2-c2ccc(C)cc2)cc1
[14]
  inhibition: 100%
[15]
  inhibition: 74%
Cyclooxygenase [12]
  IC50: 30 nM
[16]
  inhibition: 100%

## COc1ccc(-n2nc(C#CCN(O)C(N)=O)cc2-c2ccc(C)cc2)cc1
[17]
  inhibition: 76%
[18]
  inhibition: 32%
[19]
  inhibition: 15%
Cyclooxygenase [20]
  IC50: 310 nM
[21]
  inhibition: 46%
Cyclooxygenase [12]
  IC50: 12100 nM
[22]
  inhibition: 10%
[23]
  inhibition: 53%
[7]
  inhibition: 11%
[9]
  inhibition: 82%
